# Measurements published in patent publication US8017575B2 (priority 2004, dated 2011).
# Where “and” joins values, the source holds several entries; their conditions need not be identical. Equal values may be shown once. Read-outs that look alike come from different tables or passages of the source.
# Legend:
# beta receptors = assay: Heart rate test of beta blockade (propranolol vs isoproterenol); assay type: in vivo, rat
# Protocol: Identification of Blocking Dose of […]: A standard surgical preparation, laparotomy and portal vein puncture were performed on an anesthetized rat. […] (Heart rate was measured using a Grass AC/DC Strain gauge amplifier and National Instrument data acquisition software.) Following stabilization, isoproterenol (0.5 μg/kg/min-IV) was administered at a rate of 0.1 ml/min for 5 minutes. Heart rate and glucose levels were analyzed in the last 30 seconds of isoproterenol administration and 15 minutes subsequent to discontinuation of isoproterenol infusion.
# insulin sensitivity [1] = assay: Rapid Insulin Sensitivity Test (RIST) before/after hemorrhage to 50 mmHg (hemorrhage-induced HDIR); assay type: in vivo, rat
# Protocol: (§1) Surgical Procedures: Male Sprague Dawley rats (Charles River, St. Constant, Quebec, Canada) were housed in climate-controlled conditions for at least 6 days prior to surgical preparation. The animals were fasted for 8 hours, and then allowed ad lib access to standard rat chow for 2 hours prior to surgical preparation. […] The animals were weighed and anesthetized by an intraperitoneal injection of pentobarbital sodium (65 mg/ml, Somnotol, Biomeda-MTC Animal Health Inc., Cambridge Canada). Temperature was monitored by a rectal thermometer and kept constant at 37.5±0.5° C. by a heated surgical table and an overhead lamp. […] Animals were heparinized (100 IU/kg). Blood samples were taken by puncturing the arterial side of the arterial-venous shunt. The infusion of pharmacological agents was done by puncturing and inserting an infusion line into the silicon sleeve of the venous side of the shunt. Arterial pressure was measured by clamping the silicon sleeve on the venous side of the shunt, and measuring pressure from a side branch. A tracheotomy was performed (Micro-Renathane Tubing (095), Braintree Scientific Inc.) The left jugular vein was then cannulated with PE60 tubing in order to allow for continuous supplemental anesthetic (sodium pentobarbital, 2.16 mg/ml saline) infusion at a rate of 0.5 ml/hr/100 g of body weight. An infusion line was inserted into a silicon sleeve on the jugular supplement line for glucose administration and was controlled by a variable infusion pump (Genie, Kent Scientific Corporation, Litchfield, Mass.). The cannulation of the femoral artery and vein, the tracheotomy and the jugular vein cannulation is the standard surgical preparation.
# (§2) After surgical completion, the animal was allowed to stabilize for 30 minutes, after which arterial blood samples (25 μl) were taken from the shunt and analyzed for blood glucose concentration using a glucose oxidase analyzer (Yellow Springs Instruments, Yellow Springs, Ohio). Samples were analyzed at five-minute intervals until 3 successive stable measurements were obtained. The mean of these 3 samples was used as the basal glucose level. […] At 45 seconds, a glucose infusion was initiated and adjusted to maintain euglycemia as determined by the basal glucose level. An arterial sample was taken from the arterial-venous shunt every 2 minutes during the RIST, and the glucose infusion was increased or decreased accordingly. […] The amount of glucose infused over the RIST (mg glucose/kg of body weight) is known as the RIST index.
# (§3) Following the standard surgical procedure described above, a control RIST was performed. The anesthetized animal was hemorrhaged to an arterial blood pressure of 50 mmHg and held at this pressure for a 10 minute interval, by withdrawing additional blood as needed. Blood was not returned. The animal was hemorrhaged from the arterial side of the shunt, using a 23-gauge needle attached to a syringe, at a rate of 0.5 ml/min. Arterial blood pressure was measured from the vascular shunt during brief occlusion of the venous side of the shunt. Following the hemorrhage, arterial blood glucose levels were measured until they became stable for at least 15 minutes and another RIST was performed.
# A control RIST was performed after a 30 minute stabilization period. […] A post hemorrhage RIST was then done as soon as a stable glycemic baseline had been established.
# (§4) Effect of Phentolamine on HDIR following Hemorrhage: Following a standard surgical preparation, a laparotomy and portal puncture was performed. After a 30 minute stabilization period, a control RIST was performed. Following the RIST, phentolamine (400 μg/kg/min-IPV, 10 minute infusion at a rate of 0.025 ml/min), or cyclosomatostatin (20 μg/kg/min-IPV, continuous infusion at a rate of 0.025 ml/min) was administered. The rat was restabilized and then hemorrhaged to an arterial blood pressure of 50 mmHg and held at this pressure for a ten-minute interval.
# [2] = Arterial blood glucose (glycemia) during drug infusion and hemorrhage; assay type: in vivo, rat
# Protocol: as §2, §3
# as §4, with “interval. […]” for “interval.”
# insulin sensitivity [3] = assay: RIST during somatostatin infusion (somatostatin-induced HDIR); assay type: in vivo, rat
# Protocol: as §1, with “The cannulation of the femoral artery and vein, the tracheotomy and the jugular vein cannulation is the standard surgical preparation.” left out
# After surgical completion, the animal was allowed to stabilize for 30 minutes, after which arterial blood samples (25 μl) were taken from the shunt and analyzed for blood glucose concentration using a glucose oxidase analyzer (Yellow Springs Instruments, Yellow Springs, Ohio). Samples were analyzed at five-minute intervals until 3 successive stable measurements were obtained. […] At 45 seconds, a glucose infusion was initiated and adjusted to maintain euglycemia as determined by the basal glucose level. […]
# [4] = for Volume of Distribution, Percent Change (reduction): SMA ligation vs control
# Protocol: Following the hemorrhage, another RIST was performed. […] The samples were centrifuged and the plasma was frozen immediately on dry ice, and stored at −80° C.
# A snare was inserted around the artery so that it could be occluded. The animal was allowed to rest for a 30 minute interval.
# [5] = SMA ligation series, SMA ligated
# [6] = hemorrhage series, control, insulin 50 mU/kg 30 second bolus
compound,measurement,setting,value
CC(C)NCC(O)c1ccc(O)c(O)c1 (stereo not shown) [isoproterenol],heart rate (remained at original baseline level),beta receptors; isoproterenol 0.5 μg/kg/min-IV subsequent to propranolol 1.5 mg/kg-IPV,415.3±5.9 beats/min
same,increase in basal heart rate,beta receptors; isoproterenol alone,125.2±9.8 beats/min
Cc1ccc(N(CC2=NCCN2)c2cccc(O)c2)cc1 [phentolamine],prevention of HDIR subsequent to hemorrhage,insulin sensitivity [1]; Example 7: phentolamine 400 μg/kg/min-IPV,unable to prevent HDIR
same,post hemorrhage RIST index,"insulin sensitivity [1]; Example 7: phentolamine 400 μg/kg/min-IPV prior to hemorrhage, control 213.1±8.4, n=7",145.4±9.2 mg of glucose/kg
same,decrease in insulin sensitivity (RIST index) between control and post hemorrhage RIST,"insulin sensitivity [1]; Example 7: phentolamine 400 μg/kg/min-IPV prior to hemorrhage, n=7",31.8%
same,decrease in insulin sensitivity (RIST index) between control and post hemorrhage RIST,"insulin sensitivity [1]; Example 7: phentolamine 400 μg/kg/min-IPV prior to hemorrhage, n=7, listed as Phentolamine",31.8% and 31.8±5.5%
same,increase in glycemia during hemorrhage,[2]; phentolamine 400 μg/kg/min-IPV prior to hemorrhage (18.2±4.2% without agents),1.1±0.9% and 1.1%
CC(C)NCC(O)COc1cccc2ccccc12 (stereo not shown) [propranolol],prevention of HDIR subsequent to hemorrhage,insulin sensitivity [1]; Example 8: propranolol 1.5 mg/kg-IPV,unable to prevent HDIR
same,increase in glycemia following hemorrhage,[2]; propranolol 1.5 mg/kg-IPV prior to hemorrhage,17.4±3.3% and 17.4%
same,block of the acceleration in heart rate caused by isoproterenol,beta receptors; propranolol 1.5 mg/kg,completely block
same,reduction in basal heart rate,beta receptors; propranolol 1.5 mg/kg-IPV,70.6±1.3 beats/min
cyclosomatostatin,post hemorrhage RIST index,"insulin sensitivity [1]; Example 9: cyclosomatostatin 20 μg/kg/min-IPV continuous, started prior to hemorrhage, initial RIST 214.3±8.8, n=5",217.5±8.5 mg of glucose/kg
same,prevention of HDIR following hemorrhage,"insulin sensitivity [1]; Example 9: cyclosomatostatin 20 μg/kg/min-IPV prior to hemorrhage, n=5",prevented the occurrence of HDIR
same,prevention of somatostatin-induced HDIR,"insulin sensitivity [3]; Example 6: cyclosomatostatin 20 μg/kg/min-IPV continuous infusion, n=3",significantly prevented the occurrence of HDIR
same,cyclosomatostatin and somatostatin RIST index,"insulin sensitivity [3]; Example 6: cyclosomatostatin 20 μg/kg/min-IPV with somatostatin 0.16 μg/kg/min, control 215.9±7.4, n=3",213.1±8.6 mg of glucose/kg
same,blockade of somatostatin induced HDIR,"insulin sensitivity [3]; pilot studies, cyclosomatostatin 10 μg/kg/min",did not produce a full blockade
same,increase in glycemia following hemorrhage,"[2]; cyclosomatostatin 20 μg/kg/min-IPV, infused 67.2±4.8 minutes",19.9±2.0%
insulin: Human insulin (Humulin R) purchased from Eli Lilly,Clearance,[4]; [5],0.667 ± 0.0167 mL/min/kg
same,Volume of Distribution,[4]; [5],0.03 ± 0.003 L/kg
same,"Volume of Distribution, Percent Change (reduction)",[4],69.4±2.2%
same,"Volume of Distribution, Percent Change (reduction)",[4]; listed as Insulin,69.39%
same,insulin concentration at the 1 minute mark of the RIST,"[4]; after hemorrhage, n=4",27.5 ± 3.8 µg/L
same,time for insulin to decrease to baseline,"[4]; both control and hemorrhage RISTs, 30 second bolus 50 mU/kg",5 min
same,Clearance,[4]; [6],1.03 ± 0.15 mL/min/kg
same,Volume of Distribution,[4]; [6],0.056 ± 0.012 L/kg
